The text below walks through data of patent EP4775570A1, “CYP11A1 INHIBITOR, PREPARATION METHOD THEREFOR AND USE THEREOF” (Shenzhen Zhongge Biological Technology Co., Ltd., priority 2023, dated 2025).

For one series, the target named is T1, CYP11A1 (Homo sapiens, UniProt P05108).
T1 construct: host or cells: NCI-H295R
T1 sequence (P05108 40-521): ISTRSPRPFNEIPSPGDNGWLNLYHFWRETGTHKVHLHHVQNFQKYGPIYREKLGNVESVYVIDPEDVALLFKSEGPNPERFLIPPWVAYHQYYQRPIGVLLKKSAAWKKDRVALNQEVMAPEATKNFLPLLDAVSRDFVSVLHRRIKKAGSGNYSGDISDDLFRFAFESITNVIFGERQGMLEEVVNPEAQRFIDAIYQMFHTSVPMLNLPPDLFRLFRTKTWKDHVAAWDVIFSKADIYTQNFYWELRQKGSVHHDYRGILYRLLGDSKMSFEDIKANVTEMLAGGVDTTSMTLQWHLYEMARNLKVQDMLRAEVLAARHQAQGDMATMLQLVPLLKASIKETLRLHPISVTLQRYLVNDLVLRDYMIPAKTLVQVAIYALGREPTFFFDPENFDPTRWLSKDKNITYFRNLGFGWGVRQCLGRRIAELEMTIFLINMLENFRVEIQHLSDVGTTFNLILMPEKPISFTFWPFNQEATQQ
Briefly: NCI-H295R cellular pregnenolone biosynthesis inhibition assay (ELISA method). In kind it is cell-based. As to conditions: NCI-H295R cells, 3 days incubation, pregnenolone in cell supernatant by ELISA; read-out: IC50. Put shortly: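 NCI-H295R adrenocortical cells (5,000/well) treated 3 days at 37°C with compounds from 10µM top, 3-fold 10-point series, 0.1% DMSO. Pregnenolone in 5×-diluted supernatant measured by competitive ELISA (A450). Inhibition normalised to 1µM ODM-208 (100%) and DMSO (0%); IC50 by four-parameter fit.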

Series [1] can be described thus: PK study, intravenous and oral administration, plasma LC-MS/MS. The series is classed as in vivo. The conditions noted are these: both sexes, 5 mg/kg, oral administration of 5 mpk, species not given (ICR mice or SD Rat); for half-life: read-out: half-life (t1/2) (converted); for bioavailability: read-out: bioavailability (F). As for the experimental part: ICR mice (male/female, total 6 animals) were assigned to two groups for oral administration and intravenous administration, respectively, with 3 mice in each group. Before administration, the animals were fasted for 10-14 hours, with water available ad lib.
SD Rat (male/female, total 6 animals) were assigned to two groups for oral administration and intravenous administration, respectively, with 3 mice in each group. Before administration, the animals were fasted for 10-14 hours, with water available ad lib.
The compounds to be tested were weighed out in accordance with intended dosage, formulated with vehicles (5% DMSO + 10% Solutol + 85% physiological saline) to dosage form at appropriate concentrations (administered intravenously and orally in rats or mice at a volume of 5 mL/kg and 10 mL/kg, respectively). The dosage form for intravenous injection is a clear solution, and the dosage form for oral administration is a clear solution or homogenous suspension.
Administration to animals was conducted through intravenous injection and oral gavage, and blood samples were collected at 0.033, 0.083, 0.25, 0.5, 1, 2, 4, 8, and 24 hours after intravenous injection, or at 0.083, 0.25, 0.5, 1, 2, 4, 6, 8, and 24 hours after oral administration. After centrifugation of whole blood samples at 4°C and 6,800g for 6 minutes, the upper layers of plasma were stored at -80°C refrigerator before analysis.
The DMSO stock solutions of the substance to be tested were diluted with methanol or acetonitrile solution to serial working solutions and added to blank plasma matrix to formulate samples for standard curve and quality control. An appropriate volume of plasma sample was added with appropriate fold of methanol or acetonitrile containing internal standards, according to response, for protein precipitation. After centrifugation of all samples at 4°C and 18,000g for 10 min, appropriate volumes of supernatant were taken for LC-MS/MS analysis.
Plasma drug concentration-time curves were plotted in accordance with tested concentrations, and pharmacokinetic parameters were calculated based on non-compartmental model using WinNonlin software, including half-life (T1/2), area under the drug concentration-time curve (AUC0-t), clearance rate (CL), steady-state distribution volume (Vss), bioavailability (F), etc.

Molecules are shown by their SMILES.

Take `COc1cc(CN2Cc3ccccc3C2)ccc1CCC1CCN(S(C)(=O)=O)CC1` [compound 53]: the IC50 at CYP11A1 is under 0.1 µM. For the same molecule, in series [1], the AUC was over 1700 ng·h/mL and the half-life is over 3 h.
`Cn1c(CN2Cc3ccccc3C2)c(F)cc(CCC2CCN(S(C)(=O)=O)CC2)c1=O` [compound 72]: the IC50 at CYP11A1 was under 0.1 µM. In series [1], the AUC was over 1700 ng·h/mL, the bioavailability was over 60% and the half-life was over 3 h.
As to `Cn1c(CN2Cc3ccccc3C2)c(F)cc(C=CC2CCN(C(=O)CC#N)CC2)c1=O` [compound 112], the IC50 at CYP11A1 is under 0.1 µM. Further, in series [1], the AUC was over 1700 ng·h/mL, the Cmax is over 1000 ng/mL and the bioavailability was over 60%.
